Where two headings read alike, the source gives them in different places.
System: Pseudomonas aeruginosa (ATCC #10145)
Assay: MIC via microbroth dilution
Type: cell-based
Description: To examine the preservative boosting potential of these dispersions, minimum inhibitory concentration (MIC) testing was performed. MICs were determined via microbroth dilution using the following specific test parameters:
Necessary organism dilutions via OD600 were calculated based on OD600 of 1.0 being equivalent to 8×10^8 CFU/mL. Biocide dilutions were performed in 2-fold increments for each assay.

**Q.** Which results are given for [Na+].[O-][n+]1ccccc1[S-] [sodium pyrithione]?
**A.** Fold Reduction of MIC over control without booster: 64 fold; fold lower MIC values: clearly antagonistic

**Q.** O=c1[nH]sc2ccccc12 [BIT, 1,2-benzisothiazolin-3-one] was tested. Which “Fold Reduction of MIC over control without booster” value (Table 7, with 0.075% “1737-72”:AMP95 (1:1)) did it give?
**A.** 2 fold

**Q.** And the “Fold Reduction of MIC over control without booster” value (Table 7, with 0.15% “1737-72”:AMP95 (1:1))?
**A.** 2 fold

**Q.** And the “fold lower MIC values” (biocide in combination with magnesium oxide version “1737-34”)?
**A.** 2 fold

— patent publication US20250340743A1, “Polyetheramine-Based Multifunctional Booster” (Troy Technology II, Inc., priority 2022, published 2025)
